Key:
Format in all cases: in vivo
[1] = test system: toxicity of amphetamine in mice; assay: amphetamine group toxicity (mortality rate); details: 15 min later amphetamine 7 mg/kg
Description: It is known that the toxicity of amphetamine is increased by administration of anti-depressive compounds, especially those that have a central nervous system stimulating activity, this activity being evidenced by an increased mortality in the test.
The test substances were intraperitoneally injected and fifteen minutes later the test animals were administered amphetamine in a dose of 7 mg per kilogram. […] Those animals which were treated only with amphetamine, as control, were still all alive at that time.

[2] = test system: reserpine-pretreated mice (hypomobility); assay: test of motility (reserpine hypomotility); set-up: motility measurement: unit not given here; details: for motility measurement: mice, reserpine 5 mg/kg i.p. 10-20 h before, photocell activity cage; for stimulation of the mobility of animals: reserpine-pretreated mice, result in words
Description: Test mice were injected ten to twenty hours before the experiment with 5 mg of reserpine per kilogram of body weight, intraperitoneally. The animals developed until the beginning of the experiment a marked hypomobility. The test substances (TRH, A, B and C) are then injected intraperitoneally to groups of ten mice. Another group of ten mice pretreated with reserpine only acted as control group. The movement and activity of the animals are determined, measured and registered, the animals being confined in a photocell activity cage.
The average motility measurement for the reserpine pretreated control animals is 14.2, the untreated mice is 123.

[3] = test system: thyrotropin release; assay: thyrotropin release (endocrinological properties), standard tests; details: comparison with TRH
Source text: The endocrinological properties of typical compounds of the invention, such as L-2-oxo-imidazolidine-4-carbonyl-L-histidyl-L-prolinamide-dihydrate (Compound A) and of orotyl-L-histidyl-L-prolinamide-dihydrate (Compound B) are compared to that of TRH, the thyrotropin-releasing hormone.

[4] = test system: lowering of body temperature caused by reserpine in mice; assay: body temperature test (reserpine hypothermy); set-up: sum of the differences between the measured values and the initial temperature: unit not given here; details: for sum of the differences between the measured values and the initial temperature: reserpine 8 mg/kg i.p. 24 h before, rectal temperature every 20 min over 3 h; for effectiveness in counteracting the lowering of body temperature caused by reserpine, compared with TRH: result in words
Description: A series of standard tests were run.
Mice are intraperitoneally injected with 8 mg of reserpine per kilogram of body weight with a solution of reserpine, in 5% of ascorbic acid. After twenty-four hours the temperature of the animal has considerably dropped to a temperature, hereinafter designated as the "initial temperature", which is the reference temperature against which the effect of the compounds is measured. Then the test substance is injectd intraperitoneally. Thereafter, every twenty minutes, the temperature (rectal) is recorded over three hours. The sum of the differences between the measured values and the initial temperature are noted. These are reported below for different dosages.

[5] = test system: rats; assay: LD50 in rats
Description: (§1) For instance with Substance B the following values of the LD50 were determined: […]

[6] = test system: mice; assay: LD50 in mice
Description: as §1

[7] = test system: rats; assay: wet dog shaking test; details: 25 mg/kg i.p.
Description: The stimulant activity of Compound B is also shown in the "wet dog shaking" test of rats (standard test listed below).
Compound B was injected intraperitoneally and the animal activity is periodically observed. The effect of the substance is measured by the average number of shaking movements per minute. The dosage applied is 25 mg of substance/kilogram of body weight.

[8] = test system: central nervous system of test animals; assay: central stimulation action in pharmacological tests; details: equal doses of TRH and compound
Source text: The compounds of formula I may be administered orally or parenterally. Their effects are observed quickly. For instance, on parenteral administration the effects occur already after ten minutes.
The most remarkable effects of the new products indicated in pharmacological tests is a central stimulation action.

Structure (SMILES)	number of dead mice (in percent) sixty minutes after amphetamine ([1]; substance 10 mg/kg i.p.)	number of dead mice (in percent) sixty minutes after amphetamine ([1]; substance 20 mg/kg i.p.)	number of dead mice (in percent) sixty minutes after amphetamine ([1]; substance 50 mg/kg i.p.)	number of dead mice (in percent) sixty minutes after amphetamine ([1]; substance 100 mg/kg i.p.)	number of dead mice (in percent) sixty minutes after amphetamine ([1]; substance 200 mg/kg i.p.)	motility measurement ([2]; substance 3 mg/kg i.p.)	motility measurement ([2]; substance 5 mg/kg i.p.)	motility measurement ([2]; substance 10 mg/kg i.p.)	stimulation of the mobility of animals [2]	dose required relative to TRH to obtain an equally marked thyrotropin release [3]	sum of the differences between the measured values and the initial temperature ([4]; substance 2 mg/kg i.p.)	sum of the differences between the measured values and the initial temperature ([4]; substance 5 mg/kg i.p.)	sum of the differences between the measured values and the initial temperature ([4]; substance 10 mg/kg i.p.)	sum of the differences between the measured values and the initial temperature ([4]; substance 20 mg/kg i.p.)	effectiveness in counteracting the lowering of body temperature caused by reserpine, compared with TRH [4]	average number of shaking movements per minute ([7]; 15 minutes after application)	average number of shaking movements per minute ([7]; 30 minutes after application)	other results
NC(=O)[C@@H]1CCCN1C(=O)[C@H](Cc1c[nH]cn1)NC(=O)C1CNC(=O)N1.O.O (stereo partly drawn) [Compound A, L-2-oxo-imidazolidine-4-carbonyl-L-histidyl-L-prolinamide-dihydrate]	15%	40%	60%	50%	85%	17.0	21.7	94.1	stimulate the mobility of animals	ten-times greater dose than TRH	20.8	26.1	32.8	40.1	marketly more effective than TRH			
NC(=O)[C@@H]1CCCN1C(=O)[C@H](Cc1c[nH]cn1)NC(=O)c1cc(=O)[nH]c(=O)[nH]1.O.O [Compound B, orotyl-L-histidyl-L-prolinamide-dihydrate]	70%	55%	75%	90%	80%	98.0	106.0	104.0	stimulate the mobility of animals	ten-times greater dose than TRH	34.6	42.3	55.3	67.1	marketly more effective than TRH	5.25	3.8	LD50 ([5]; intramuscularly): > 4000 mg/kg; LD50 ([5]; intraveneously): 1000 mg/kg; LD50 ([5]; orally): > 1000 mg/kg; LD50 ([6]; intramuscularly): > 4000 mg/kg; LD50 ([6]; intraveneously): 1200 mg/kg; LD50 ([6]; orally): > 1000 mg/kg; average number of shaking movements per minute ([7]; 45 minutes after application): 3.2; average number of shaking movements per minute ([7]; 60 minutes after application): 2.15; average number of shaking movements per minute ([7]; 75 minutes after application): 2.1; average number of shaking movements per minute ([7]; 90 minutes after application): 1.55; average number of shaking movements per minute ([7]; 105 minutes after application): 1.05; average number of shaking movements per minute ([7]; 120 minutes after application): 0.6; average number of shaking movements per minute ([7]; 135 minutes after application): 0.3; duration of action compared with TRH ([7]; result in words): longer acting than TRH; duration of effect relative to TRH [8]: several times longer; strength of stimulating effect on the central nervous system relative to TRH [8]: about five times stronger
NC(=O)[C@@H]1CCCN1C(=O)[C@H](Cc1c[nH]cn1)NC(=O)C1CSCC(=O)N1.O (stereo partly drawn) [Compound C, L-5-oxo-thiomorpholine-3-carbonyl-L-histidyl-L-prolinamide-hydrate]	60%	70%	70%	70%	90%	51.0	72.0	69.0	stimulate the mobility of animals									
NC(=O)[C@@H]1CCCN1C(=O)[C@H](Cc1c[nH]cn1)NC(=O)[C@@H]1CCC(=O)N1 [TRH, pyroglutamyl-histidyl-proline amide, reference compound]	20%	25%	55%	65%	65%	0.9	1.2	44.0			18.4	16.5	27.9	32.8		2.9	1.0	

Reference: patent US4045556A, “Dipeptide derivatives, process for manufacture and pharmaceutical preparations” (priority 1974, dated 1977)
